Results taken from patent US4535089A, “Alkyloxazolylacetic acid derivative for the treatment of hyperlipidemia” (Tanabe Seiyaku Co., Ltd., priority 1982, dated 1985).

Legend:
platelet aggregation [1] = assay: Platelet aggregation-inhibiting activity in vitro (collagen, platelet-rich plasma); assay type: cell-based, male SD rats; settings: final concentration 100 μg/ml, rat PRP, 37° C.
Method: (§1) Blood was collected from the abdominal aorta of male SD rats (body weight: 250-300 g) which were anesthetized with ether. Nine volumes of said blood were mixed with one volume of an aqueous 3.8% (w/v) trisodium citrate solution, and the mixture was centrifuged at 500×g for 5 minutes to give platelet-rich plasma (hereinafter referred to as "PRP") as the supernatant solution. The bottom layer was further centrifuged at 1000×g for 10 minutes to give platelet-poor plasma (hereinafter referred to as "PPP") as the supernatant solution. PRP was diluted with PPP so that the blood platelet count was 8-10×10^5 cells/mm^3.Then, a mixture of 200 μl of said diluted PRP and 25 μl of a test compound solution (final concentration: 100 μg/ml) was introduced into a glass cell of SIENCO aggregometer (Sienco Inc., Morrison, Colo. Model DP-247-D). After the mixture was stirred at 1100 rpm at 37° C. for 2 minutes, 25 μl of a collagen solution (prepared by Holmsen's method described in Biochim. Biophys. Acta, Vol. 186, page 254(1969)) was added thereto, and the percentage inhibition of platelet aggregation was calculated in accordance with the following formula from the degree of the platelet aggregation which was estimated by Born's method (Nature, 194, page 927(1962)). [formula]

serum triglyceride = assay: Hypolipidemic activity: decrease in serum triglyceride; assay type: in vivo; settings: 50 mg % in diet, one week, male SD rats
Method: (§2) A test compound (50 mg %) was added to a commercial diet, and male SD rats (body weight: 120-140 g, a group of 5 rats) were fed with the diet ad libitum for one week. After the experimental period, blood was collected from the tail vein of the rats under ether anesthesia. Then, liver was excised from the rats and the weight thereof was measured. On the other hand, serum cholesterol and serum triglyceride were measured according to the methods of Zak (Amer. J. Clin. Pathol., Vol. 24, page 1307(1954)) and Van Handel-Zilversmit (J. Lab. & Clin. Med., Vol. 50, page 152(1957)), respectively. Based on the results obtained above, the decrease (%) in serum cholesterol or triglyceride and increase (%) in liver weight were calculated by the following formulae: [formula]

serum cholesterol = assay: Hypolipidemic activity: decrease in serum cholesterol; assay type: in vivo; settings: 50 mg % in diet, one week, male SD rats
Method: as §2

mice = assay: Acute oral toxicity in mice; assay type: in vivo; settings: 1000 mg/kg oral, 7 days after administration
Source text: The compound (I) (R^2 =H) of the present invention can be used for pharmaceutical use in the form of either a free acid or a pharmaceutically acceptable salt thereof. Pharmaceutically acceptable salts of the compound (I) (R^2 =H) include, for example, alkali metal salts such as sodium and potassium salts; alkaline earth metal salts such as calcium and magnesium salts; salts thereof with amino acids such as lysine, ornithine, arginine and histidine salts; and ammonium salt. Such pharmaceutically acceptable salts may be prepared, for example, by neutralizing the free acid with a stoichiometrically equimolar amount of a base such as an alkali metal hydroxide, an alkaline earth metal hydroxide, ammonia or a basic amino acid. The compound (I) and a salt thereof can be administered either orally or parenterally. For oral administration, the compound (I) or a salt thereof may be used in the form of tablets, powder, capsules, granules and the like. Known medicinal excipients such as calcium carbonate, calcium phosphate, corn starch, potato starch, sugar, lactose, talc, magnesium stearate and so forth may be used in making these pharmaceutical preparations. Alternatively, the compound (I) or a salt thereof may be used for oral administration in the form of aqueous or oily suspensions, solutions, syrps or elixirs. […]

platelet aggregation [2] = assay: Platelet aggregation-inhibiting activity after oral administration (ex vivo); assay type: in vivo; settings: Rattus norvegicus, 1 h, 100 mg/kg oral, blood collected one hour after administration, SD rats, read-out: Percentage inhibition of platelet aggregation (%)
Method: as §1, with “PRP was diluted with PPP so that the blood platelet count was 8-10×10^5 cells/mm^3.Then, a mixture of 200 μl of said diluted PRP and 25 μl of a test compound solution (final concentration: 100 μg/ml) was introduced into a glass cell of SIENCO aggregometer (Sienco Inc., Morrison, Colo. Model DP-247-D).” left out, “[formula]” left out
A test compound was suspended in a solution containing 0.25% of carboxymethylcellulose (sodium salt) and 0.01% of Tween 80, and the suspension was administered orally to make SD rats (a group of 4 rats). […] Thereafter, said blood was treated in the same manner as described in Experiment 2, and the percentage inhibition of platelet aggregation was calculated in accordance with the following formula: [formula]

liver = assay: Increase in liver weight (hypolipidemic experiment); assay type: in vivo; settings: 50 mg % in diet, one week, male SD rats
Method: as §2

increase (%) in liver weight (liver) | SMILES | inhibition at 100 µg/mL (platelet aggregation [1]) | Decrease (%) in serum triglyceride (serum triglyceride) | Decrease (%) in serum cholesterol (serum cholesterol) | mortality (mice) | inhibition at 100 mg/kg (platelet aggregation [2])
– | CC(C)c1oc(-c2ccc(Cl)cc2)nc1CC(=O)O [2-[2-(4-chlorophenyl)-5-isopropyl-4-oxazolyl]acetic acid] | ≥ 10% | 39% | 12% | – | –
– | CC(C)Cc1oc(-c2ccc(F)cc2)nc1CC(=O)O [2-[2-(4-fluorophenyl)-5-isobutyl-4-oxazolyl]acetic acid] | – | 51% | 11% | – | –
– | CCOC(=O)Cc1nc(-c2ccc(Cl)cc2)oc1C(C)C [ethyl 2-[2-(4-chlorophenyl)-5-isopropyl-4-oxazolyl]acetate] | ≥ 10% | 55% | 18% | – | –
– | CCOC(=O)Cc1nc(-c2ccc(Cl)cc2)oc1C [ethyl 2-[2-(4-chlorophenyl)-5-methyl-4-oxazolyl]acetate] | – | 36% | 19% | no mouse dies | –
– | CCCCCc1oc(-c2ccc(Cl)cc2)nc1CC(=O)OCC [ethyl 2-[2-(4-chlorophenyl)-5-n-pentyl-4-oxazolyl]acetate] | – | 52% | 15% | no mouse dies | –
– | CCCCCc1oc(-c2ccc(Cl)cc2)nc1CC(=O)O [2-[2-(4-chlorophenyl)-5-n-pentyl-4-oxazolyl]acetic acid] | – | 60% | 19% | – | –
– | Cc1oc(-c2ccc(Cl)cc2)nc1CC(=O)O [2-[2-(4-chlorophenyl)-5-methyl-4-oxazolyl]acetic acid] | – | 48% | 14% | – | –
– | CCOC(=O)Cc1nc(-c2ccc(Cl)cc2)oc1CC(C)C [ethyl 2-[2-(4-chlorophenyl)-5-isobutyl-4-oxazolyl]acetate] | ≥ 10% | – | – | – | –
– | CC(C)c1oc(-c2ccccc2)nc1CC(=O)O [2-(2-phenyl-5-isopropyl-4-oxazolyl)acetic acid] | ≥ 10% | – | – | – | 97 ± 2%
– | CCOC(=O)Cc1nc(-c2ccc(F)cc2)oc1CC(C)C [ethyl 2-[2-(4-fluorophenyl)-5-isobutyl-4-oxazolyl]acetate] | ≥ 10% | 66% | 13% | – | –
– | CCOC(=O)Cc1nc(-c2ccc(F)cc2)oc1C(C)C [ethyl 2-[2-(4-fluorophenyl)-5-isopropyl-4-oxazolyl]acetate] | ≥ 10% | 33% | 23% | – | –
12% | CCOC(=O)C(C)(C)Oc1ccc(Cl)cc1 [Clofibrate, 2-(4-chlorophenoxy)-2-methylpropanoic acid ethyl ester, reference compound] | < 10% | 16% | 15% | – | 53 ± 19%
– | CC(C)c1oc(-c2ccc(F)cc2)nc1CC(=O)O [2-[2-(4-fluorophenyl)-5-isopropyl-4-oxazolyl]acetic acid] | ≥ 10% | 42% | 21% | – | –
